Experimental data reported in patent US20090253709A1 (NATIONAL DEFENSE MEDICAL CENTER, priority 2008, published 2009).

Columns and labels:
Assay in all cases: In vitro cytotoxicity, Development Therapeutics Program
Format in all cases: cell-based
NCI-H23 = conditions: NCI-H23, non-small cell lung cancer; 1.0×10^−5 M
From the text: (§1) From the in vitro experiments of the Development Therapeutics Program of the Cancer Research Institute, the United States, it was known that the synthetic heterocyclic anthraquinone derivatives of the present invention have different inhibition levels to the different cancer cell lines under the concentration of 1.0×10^−5 M. Please refer to Table 2, which is the result of in vitro cytotoxicity of 2,7-disubstituted anthraquinone derivatives of the present invention.

CAK1-1 = conditions: CAK1-1, renal cancer; 1.0×10^−5 M
From the text: as §1

MDA-MB-231/ATCC = conditions: breast cancer, 1.0×10^−5 M
From the text: as §1

HL-60(TB) = conditions: leukemia, 1.0×10^−5 M
From the text: as §1

UO-31 = conditions: UO-31, renal cancer; 1.0×10^−5 M
From the text: as §1

NCl-H460 = conditions: NCl-H460, non-small cell lung cancer; 1.0×10^−5 M
From the text: as §1

A498 = conditions: A498, renal cancer; 1.0×10^−5 M
From the text: as §1

DU-145 = conditions: DU-145, prostate cancer; 1.0×10^−5 M
From the text: as §1

SF-539 = conditions: SF-539, CNS cancer; 1.0×10^−5 M
From the text: as §1

ACHN = conditions: renal cancer, 1.0×10^−5 M
From the text: as §1

HT29 = conditions: HT29, colon cancer; 1.0×10^−5 M
From the text: as §1

SK-OV-3 = conditions: SK-OV-3, ovarian cancer; 1.0×10^−5 M
From the text: as §1

SN12C = conditions: renal cancer, 1.0×10^−5 M
From the text: as §1

SNB-75 = conditions: SNB-75, CNS cancer; 1.0×10^−5 M
From the text: as §1

TK-10 = conditions: TK-10, renal cancer; 1.0×10^−5 M
From the text: as §1

SR = conditions: leukemia, 1.0×10^−5 M
From the text: as §1

COLO 205 = conditions: COLO 205, colon cancer; 1.0×10^−5 M
From the text: as §1

EKVX = conditions: non-small cell lung cancer, 1.0×10^−5 M
From the text: as §1

SK-MEL-5 = conditions: SK-MEL-5, melanoma; 1.0×10^−5 M
From the text: as §1

LOX IMVI = conditions: melanoma, 1.0×10^−5 M
From the text: as §1

RPMI-8226 = conditions: RPMI-8226, leukemia; 1.0×10^−5 M
From the text: as §1

SNB-19 = conditions: SNB-19, CNS cancer; 1.0×10^−5 M
From the text: as §1

KM12 = conditions: KM12, colon cancer; 1.0×10^−5 M
From the text: as §1

SF-268 = conditions: SF-268, CNS cancer; 1.0×10^−5 M
From the text: as §1

NCl-H322M = conditions: non-small cell lung cancer, 1.0×10^−5 M
From the text: as §1

BT-549 = conditions: BT-549, breast cancer; 1.0×10^−5 M
From the text: as §1

MCF7 = conditions: MCF7, breast cancer; 1.0×10^−5 M
From the text: as §1

T-47D = conditions: breast cancer, 1.0×10^−5 M
From the text: as §1

MALME-3M = conditions: melanoma, 1.0×10^−5 M
From the text: as §1

HCC-2998 = conditions: HCC-2998, colon cancer; 1.0×10^−5 M
From the text: as §1

OVCAR-8 = conditions: OVCAR-8, ovarian cancer; 1.0×10^−5 M
From the text: as §1

PC-3 = conditions: PC-3, prostate cancer; 1.0×10^−5 M
From the text: as §1

HS 578T = conditions: breast cancer, 1.0×10^−5 M
From the text: as §1

NCl-H522 = conditions: NCl-H522, non-small cell lung cancer; 1.0×10^−5 M
From the text: as §1

SF-295 = conditions: SF-295, CNS cancer; 1.0×10^−5 M
From the text: as §1

M14 = conditions: M14, melanoma; 1.0×10^−5 M
From the text: as §1

HCT-15 = conditions: HCT-15, colon cancer; 1.0×10^−5 M
From the text: as §1

SK-MEL-28 = conditions: SK-MEL-28, melanoma; 1.0×10^−5 M
From the text: as §1

UACC-257 = conditions: UACC-257, melanoma; 1.0×10^−5 M
From the text: as §1

Row | SMILES | Cellular growth rate (%) (NCI-H23) | Cellular growth rate (%) (CAK1-1) | Cellular growth rate (%) (MDA-MB-231/ATCC) | Cellular growth rate (%) (HL-60(TB)) | Cellular growth rate (%) (UO-31) | Cellular growth rate (%) (NCl-H460) | Cellular growth rate (%) (A498) | Cellular growth rate (%) (DU-145) | Cellular growth rate (%) (SF-539) | Cellular growth rate (%) (ACHN) | Cellular growth rate (%) (HT29) | Cellular growth rate (%) (SK-OV-3) | Cellular growth rate (%) (SN12C) | Cellular growth rate (%) (SNB-75) | Cellular growth rate (%) (TK-10) | Cellular growth rate (%) (SR) | Cellular growth rate (%) (COLO 205) | Cellular growth rate (%) (EKVX) | Cellular growth rate (%) (SK-MEL-5) | Cellular growth rate (%) (LOX IMVI) | also measured
1 | CCN(CC)CCC(=O)Nc1ccc2c(c1)C(=O)c1cc(NC(=O)CCN(CC)CC)ccc1C2=O [Compound 16, 2,7-Bis[3-(diethylamino)propionamido]anthraquinone] | 30.34% | 3.27% | 31.32% | 14.01% | −31.53% | 9.50% | −38.76% | 10.20% | 37.15% | 11.09% | 3.30% | 44.02% | 8.63% | 46.62% | 17.16% | −0.39% | −49.69% | 59.99% | 82.75% | 3.39% | Cellular growth rate (%) (RPMI-8226): −29.02%; Cellular growth rate (%) (SNB-19): 75.84%; Cellular growth rate (%) (KM12): 21.82%; Cellular growth rate (%) (SF-268): 35.18%; Cellular growth rate (%) (NCl-H322M): 44.75%; Cellular growth rate (%) (BT-549): 57.04%; Cellular growth rate (%) (MCF7): 9.34%; Cellular growth rate (%) (T-47D): 68.62%; Cellular growth rate (%) (MALME-3M): 62.39%; Cellular growth rate (%) (HCC-2998): −87.42%; Cellular growth rate (%) (OVCAR-8): 4.30%; Cellular growth rate (%) (PC-3): 13.59%; Cellular growth rate (%) (HS 578T): −23.77%; Cellular growth rate (%) (NCl-H522): 27.98%; Cellular growth rate (%) (SF-295): −19.91%; Cellular growth rate (%) (M14): 62.79%; Cellular growth rate (%) (HCT-15): 17.42%; Cellular growth rate (%) (SK-MEL-28): 2.56%; Cellular growth rate (%) (UACC-257): −14.46%
2 | O=C1c2ccc(NC(=O)C3CC3)cc2C(=O)c2cc(NC(=O)C3CC3)ccc21 [Compound 32, 2,7-Bis(cyclopropanecarbonamido)anthraquinone] | 95.85% | 88.43% | 97.05% | 62.45% | 95.55% | 89.03% | 92.35% | 98.83% | 93.24% | 86.70% | 106.26% | 93.16% | 82.93% | 89.23% | 136.20% | 1.69% | 91.92% | 94.31% | 75.67% | 90.27% | Cellular growth rate (%) (RPMI-8226): 88.38%; Cellular growth rate (%) (SNB-19): 98.79%; Cellular growth rate (%) (KM12): 92.67%; Cellular growth rate (%) (SF-268): 95.09%; Cellular growth rate (%) (NCl-H322M): 105.77%; Cellular growth rate (%) (BT-549): 92.51%; Cellular growth rate (%) (MCF7): 77.38%; Cellular growth rate (%) (T-47D): 79.75%; Cellular growth rate (%) (MALME-3M): 91.76%; Cellular growth rate (%) (HCC-2998): 132.37%; Cellular growth rate (%) (OVCAR-8): 94.34%; Cellular growth rate (%) (PC-3): 106.89%; Cellular growth rate (%) (HS 578T): 118.90%; Cellular growth rate (%) (NCl-H522): 89.41%; Cellular growth rate (%) (SF-295): 86.60%; Cellular growth rate (%) (M14): 98.89%; Cellular growth rate (%) (HCT-15): 86.35%; Cellular growth rate (%) (SK-MEL-28): 108.51%; Cellular growth rate (%) (UACC-257): 107.63%
